For one experiment, the target named is T1, Human recombinant PKCβ1 (Homo sapiens, UniProt P05771).
T1 construct: purchased Oxford Biomedical Research
Briefly: Protein Kinase Cβ1 Assay. It counts as biochemical. Conditions: single compounds. Here is the method: (§1) The compounds of the invention are tested for their activity on different PKC isoforms according to the following method. Assay is performed in a white with clear bottom 384-well microtiterplate with non-binding surface. The reaction mixture (25 μl) contains 1.5 μM of a tridecapeptide acceptor substrate that mimics the pseudo substrate sequence of PKC a with the Ala→Ser replacement, 10 μM ^33P-ATP, 10 mM Mg(NO3)2, 0.2 mM CaCl2, PKC at a protein concentration varying from 25 to 400 ng/ml (depending on the isotype used), lipid vesicles (containing 30 mol % phosphatidylserine, 5 mol % DAG and 65 mol % phosphatidylcholine) at a final lipid concentration of 0.5 mM, in 20 mM Tris-HCl buffer pH 7.4 +0.1% BSA. Incubation is performed for 60 min at room temperature. Reaction is stopped by adding 50 μl of stop mix (100 mM EDTA, 200 μM ATP, 0.1% Triton X-100, 0.375 mg/well streptavidin-coated SPA beads in phosphate buffered saline w/o Ca, Mg. After 10 min incubation at room temperature, the suspension is spun down for 10 min at 300 g. Incorporated radioactivity is measured in a Trilux counter for 1 min. IC50 measurement is performed on a routine basis by incubating a serial dilution of inhibitor at concentrations ranging between […]. IC50 values are calculated from the graph by curve fitting with XL Fit® software. […]

The target in a further experiment is T2, Human recombinant PKCα (Homo sapiens, UniProt P17252).
T2 construct: purchased Oxford Biomedical Research
Briefly: Protein Kinase Cα Assay. It counts as biochemical. The settings on record: single compounds. Here is the method:
as §1

Each structure is given as a SMILES string.

T1 sequence (P05771 whole entry): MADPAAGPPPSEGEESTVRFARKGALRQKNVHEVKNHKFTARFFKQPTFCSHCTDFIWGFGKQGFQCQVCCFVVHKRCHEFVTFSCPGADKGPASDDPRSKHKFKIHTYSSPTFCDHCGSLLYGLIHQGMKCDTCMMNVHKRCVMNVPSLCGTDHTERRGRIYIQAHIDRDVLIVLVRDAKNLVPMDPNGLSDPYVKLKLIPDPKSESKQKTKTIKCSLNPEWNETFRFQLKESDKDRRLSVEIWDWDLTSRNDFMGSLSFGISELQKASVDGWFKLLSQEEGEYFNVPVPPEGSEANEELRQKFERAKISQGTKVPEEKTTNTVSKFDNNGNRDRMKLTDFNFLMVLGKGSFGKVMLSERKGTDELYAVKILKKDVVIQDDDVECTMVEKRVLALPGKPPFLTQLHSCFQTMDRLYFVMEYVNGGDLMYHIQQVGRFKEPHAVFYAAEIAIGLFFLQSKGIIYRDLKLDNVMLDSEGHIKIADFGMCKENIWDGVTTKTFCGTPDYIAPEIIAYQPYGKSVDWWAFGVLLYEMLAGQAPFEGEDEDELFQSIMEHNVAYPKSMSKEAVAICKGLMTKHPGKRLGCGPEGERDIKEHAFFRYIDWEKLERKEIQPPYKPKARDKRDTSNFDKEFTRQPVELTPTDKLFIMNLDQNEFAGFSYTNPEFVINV

Broadly, the IC50 is the point on the concentration scale where inhibition reaches its midpoint. For the molecule `Cc1cc2ccc(CN(C)C)cn2c1C1=C(c2c[nH]c3ccccc23)C(=O)NC1=O` [Example 24, 3-(6-Dimethylaminomethyl-2-methyl-indolizin-3-yl)-4-(1H-indol-3-yl)-pyrrole-2,5-dione], the IC50 on Human recombinant PKCβ1 was found to be 18.2 nM. With `Cc1ccc2c(C3=C(c4c(C(F)(F)F)[nH]c5ccc(CN(C)C)cc45)C(=O)NC3=O)c[nH]c2c1` [Example 47], the IC50 at Human recombinant PKCβ1 came to 0.9 nM. As for `CNCc1ccc2[nH]c(C)c(C3=C(c4cn(C)c5ccccc45)C(=O)NC3=O)c2c1` [Example 51], the IC50 on Human recombinant PKCα worked out at 0.3 nM.

Values taken from patent US8742132B2, “Indolylmaleimide derivatives processes for their production and pharmaceutical compositions” (Novartis AG, priority 2006, dated 2014).
